The record followed here is patent publication US8048642B2, “Heme choline esters and uses thereof” (priority 2007, dated 2011).

Assay type in all cases: biochemical
The target in data set [1] is butyrylcholine esterase (BCE) (Equus caballus, UniProt P81908). The experiment in a line: Hydrolysis of heme bis choline ester by butyrylcholine esterase, followed by HPLC. The note with it: bis choline ester with BCE (50 units) in phosphate buffer pH 7.0, HPLC at 400 nm. On the procedure: To confirm enzymatic hydrolysis of heme bis choline ester, a sample of bis choline ester in methanol was added to a solution of butyrylcholine esterase (BCE) (50 units) in phosphate buffer (pH 7.0). The progress of the hydrolysis was determined by HPLC analysis of the reaction mixture using a Waters Xterra C18 reverse phase column (4.6×50 mm). A gradient elution was performed starting with 95:5 water (+0.1% TFA):acetonitrile (+0.1% TFA) up to 0:100 over 10 minutes followed by isocratic elution with acetonitrile (+0.1% TFA) for 5 minutes. […] Under these conditions the bis ester elutes first (tR=5.2 min) followed by the monoester (5.9 min) and heme (6.6 min).

Data set [2] addresses T1, apo-horseradish peroxidase (apo-HRP) (Armoracia rusticana, UniProt P00433).
T1 sequence (P00433 31-338): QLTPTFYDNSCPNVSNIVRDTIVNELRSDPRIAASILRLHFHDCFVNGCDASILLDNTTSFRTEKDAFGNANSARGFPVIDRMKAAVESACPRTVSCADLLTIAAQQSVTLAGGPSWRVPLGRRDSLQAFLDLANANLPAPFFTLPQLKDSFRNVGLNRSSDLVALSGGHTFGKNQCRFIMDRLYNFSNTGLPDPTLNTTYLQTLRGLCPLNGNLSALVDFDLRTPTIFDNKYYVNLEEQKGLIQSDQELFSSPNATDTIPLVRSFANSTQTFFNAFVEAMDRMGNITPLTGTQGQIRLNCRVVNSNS
The experiment in a line: Recombination of heme and apo-HRP, TMB colorimetry. The note with it: heme mixed with 30 pmol apo-horseradish peroxidase, 30 min, background corrected. On the procedure:
A 250 μM stock solution of horseradish peroxidase type VI (HRP, Sigma P8375, MW=44000 g/mol) was prepared by solubilizing 11 mg of lyophilized protein in 1 mL 100 mM sodium phosphate, pH 7.0.
Heme was extracted from horseradish peroxidase type VI (Sigma P8375) according to the method of Teale (Biochim. Biophys. Acta 35, 543, (1959)). The resultant apo-HRP was dialyzed into 100 mM sodium phosphate, pH 7.0, with 0.1 mM calcium chloride. The concentration of this stock apo-HRP solution was estimated from absorbance at 280 nm as 30 μM by assuming an extinction coefficient of 20000 cm^−1 M^−1 (Lasagna et al., Biophys. J. 76, 443, (1999)).
Within an hour before performing the peroxidase assay a fresh stock solution of approximately 1 mM heme (MW 652 g/mol) was prepared by first dissolving 38.9 mg heme (Sigma H5533) in 1 mL of 1.0M NaOH and then mixing 100 μL of the resulting solution with 6 mL 100 mM borate buffer, pH 9.1.
The absorbance data in Table 4 was acquired using a SpectraMax M2 plate reader (Molecular Devices) in 96-sample format. The HRP stock solution was diluted serially with 100 mM sodium phosphate, pH 7.0, to make 2000, 500 and 50 pM solutions. 10 μL of each solution was then mixed with 90 μL 3,3′,5,5′-tetramethylbenzidine (TMB) liquid substrate system (Sigma T8665) to define t=0. The absorbance at 650 nm was measured after 30 min and corrected for the absorbance of TMB solution without added HRP.
The heme stock solution was diluted serially with 100 mM borate buffer, pH 9.1, to make 2000 pM, 500 pM, and 50 pM solutions. 10 μL of each solution was first mixed with 1 μL of the apo-HRP stock solution and then immediately mixed with 90 μL TMB liquid substrate system to define t=0. The absorbance at 650 nm was measured after 30 min and corrected for the absorbance of a mixture of apo-HRP and TMB liquid substrate system without added heme.

The target in data set [3] is T1, apo-horseradish peroxidase (apo-HRP). The experiment in a line: Signal enhancement from HRP-based cascade using a chromogenic substrate (TMB). The note with it: 6 minutes after adding TMB liquid substrate; mixtures pre-incubated 16 hours at room temperature. The procedure: The samples in Table 2 were prepared from the following stock solutions. A 120 μM stock solution of apo-HRP was prepared by adding 2 mL phosphate-buffered saline (PBS, Pierce 28372) to 10 mg lyophilized apo-HRP (Sigma 6278, MW=43000 g/mol). A 250 μM stock solution of horseradish peroxidase type VI (HRP, Sigma P8375, MW=44000 g/mol) was prepared by solubilizing 11 mg lyophilized protein in 1 mL 100 mM sodium phosphate, pH 7.0. A 1 kU/mL stock solution of butyrylcholine esterase was prepared by dissolving 1 kU lyophilized protein (Sigma C1057) in 1 mL phosphate-buffered saline (PBS, Pierce 28372). […] The 1 cm-path length absorbance of this 10% methanol solution was measured to be 17 absorbance units (au) at 390 nm using a NanoDrop-1000 Spectrophotometer. […]
Samples A1, A2, B1, and B2 were each combined with 95 μL 3,3′,5,5′-tetramethylbenzidine (TMB) liquid substrate system (Sigma T8665), which includes hydrogen peroxide. After 6 minutes OD was determined at 650 nm in a 96-well format using a SpectraMax M2 plate reader (Molecular Devices). These signals are recorded in Table 2 above.
Relative signal enhancement was calculated by subtracting appropriate background signals from wells A1 and A2, and then taking a ratio. […] The calculated signal enhancement is thus equal to (A1−B2)/(A2−B1), which corresponds to (1.05−0.16)/(0.10−0.04)=15. […]

Data set [4] shares this target. The experiment in a line: Blocking and rescue of peroxidase activity with a chemiluminescent substrate. The conditions noted are these: for Rescue of peroxidase activity of apo-HRP plus heme bis choline ester: esterase added to apo-HRP and heme bis choline ester. The procedure: A 1-kU/mL stock solution of butyrylcholine esterase was prepared by dissolving 1 kU of lyophilized protein (Sigma C1057) in 1 mL phosphate-buffered saline (PBS, Pierce 28372). An activity of 900 U per mg protein and MW=250000 g/mol was assumed and the concentration of the resultant solution was estimated as 4 μM.
A 1 kU/mL stock solution of acetylcholine esterase was prepared by dissolving 1 kU lyophilized protein (Sigma C2888) in 1 mL phosphate-buffered saline (PBS, Pierce 28372). An activity of 1000 U per mg protein and MW=280000 g/mol was assumed and the concentration of the resultant solution was estimated as 4 μM.
A fresh 1 mM solution of heme was prepared in 100 mM borate buffer, pH 9.1, as described in Example 5. The 1 cm-path length absorbance of this solution was measured to be 40 at 390 nm using a NanoDrop-1000 Spectrophotometer (NanoDrop Technologies). A 0.1 mM heme solution was then prepared by mixing 100 μL of this stock with 900 μL in PBS.
Less than 1 mg heme bis choline ester was dissolved in 100 μL methanol. 10 μL of the methanol solution was then mixed with 90 μL 100 mM borate buffer, pH 9.1. The 1 cm-path length absorbance of this 10% methanol solution was measured to be 17 absorbance units (au) at 390 nm using a NanoDrop-1000 Spectrophotometer. Assuming the extinction coefficient of heme bis choline ester in 10% methanol was not substantially different than that of heme in PBS, a 0.1 mM solution of heme bis choline ester was then prepared by mixing 23.5 μL of the 10% methanol solution with 77.5 μL PBS.
Solutions of 0.3 μM apo-HRP, 10 μM heme and 10 μM heme bis choline ester in PBS were prepared by dilution of these stock solutions with PBS. […]
90 μL of freshly mixed chemiluminescent substrate (Sigma CPS260, an enhanced luminol product with a stabilized peroxide buffer solution) was added to reaction mixtures 1-6, which were allowed to incubate at room temperature for 5 minutes and the luminescence units (LU) for each was determined with a SpectraMax M2 plate reader in a 96-well format (Molecular Devices), shown below in Table 5.

butyrylcholine esterase (BCE), sequence (P81908 whole entry): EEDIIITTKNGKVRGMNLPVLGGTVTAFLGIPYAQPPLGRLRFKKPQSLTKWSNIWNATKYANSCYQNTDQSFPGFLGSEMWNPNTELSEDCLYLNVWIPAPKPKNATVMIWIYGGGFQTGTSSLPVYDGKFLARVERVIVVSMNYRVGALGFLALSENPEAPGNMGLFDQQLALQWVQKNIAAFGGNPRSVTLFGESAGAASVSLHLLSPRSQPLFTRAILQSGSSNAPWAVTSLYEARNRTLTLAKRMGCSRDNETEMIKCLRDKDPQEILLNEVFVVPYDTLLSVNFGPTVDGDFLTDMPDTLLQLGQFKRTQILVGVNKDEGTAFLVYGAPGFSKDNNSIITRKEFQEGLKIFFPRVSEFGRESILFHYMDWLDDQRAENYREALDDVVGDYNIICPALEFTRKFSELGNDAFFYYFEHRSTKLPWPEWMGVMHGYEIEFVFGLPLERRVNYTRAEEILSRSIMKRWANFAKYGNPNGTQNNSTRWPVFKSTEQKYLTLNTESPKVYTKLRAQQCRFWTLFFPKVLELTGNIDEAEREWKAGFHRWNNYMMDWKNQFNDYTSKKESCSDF

As for `C=CC1=C(C)c2cc3[n-]c(cc4[n-]c(cc5nc(cc1n2)C(C)=C5C=C)c(C)c4CCC(=O)O)c(CCC(=O)O)c3C.[Fe+2]` [Heme, heme], the entries for the “HPLC peak area (hydrolysis progress)” value in data set [1] (0.75 hr), in data set [1] (2.75 hr) and in data set [1] (21 hr) were 7 AUC units, 12 AUC units and 21 AUC units, respectively. Further, the “OD 650 nm” value in data set [2] (5 fmol) turned out to be 0.07; in data set [2] (20 fmol) it was 0.79.

As to “A2: 5 μL of 0.13 nM HRP (0.7 fmol) [Sample A2]”, the “OD 650 nm” value in data set [3] is reported as 0.10.

Turning to “BCE: butyrylcholine esterase (Sigma C1057)”, the “Rescue of peroxidase activity of apo-HRP plus heme bis choline ester” value in data set [4] is recorded as “rescued”.

For “acetylcholine esterase: acetylcholine esterase (Sigma C2888)”, the “Rescue of peroxidase activity of apo-HRP plus heme bis choline ester” value in data set [4] is recorded as “did not demonstrably rescue peroxidase activity”.

With heme bis choline ester [Bis ester], the “Hydrolysis vs. Time, converted to concentration” value came to 100 AUC units in data set [1] (0 hr), 60 AUC units in data set [1] (0.75 hr), 52 AUC units in data set [1] (2.75 hr) and 41 AUC units in data set [1] (21 hr). In addition, the “Peroxidase activity of mixture with apo-HRP compared with heme” value in data set [4] (sample 1 versus sample 4, 10-fold excess of heme bis choline ester) is recorded as “less peroxidase activity”.

With heme mono choline ester [Mono ester], the “Hydrolysis vs. Time, converted to concentration” value in data set [1] (0.75 hr) was 28 AUC units; in data set [1] (2.75 hr), 29 AUC units; in data set [1] (21 hr), 24 AUC units.

“horseradish peroxidase: horseradish peroxidase type VI (Sigma P8375)”: the “OD 650 nm” value in data set [2] (5 fmol) came out at 0.88; in data set [2] (20 fmol), 3.4.
